Key:
Experiment in all cases: Test C greenhouse herbicide test, pre- and postemergence
Type in all cases: in vivo
[1] = tested on: barnyardgrass (Echinochloa crus-galli)
Method in brief: (§1)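 Greenhouse pots; pre-em on seeded loam:sand blend, post-em on 2–18 cm plants (1–4 leaf) in sphagnum peat/vermiculite medium. Formulation: non-phytotoxic solvent + surfactant. Read-out: visual % control (0–100) vs controls at 13–15 d.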

[2] = tested on: morningglory (Ipomoea coccinea)
Method in brief: as §1

[3] = tested on: oilseed rape (Brassica napus)
Method in brief: as §1

[4] = tested on: galium (catchweed bedstraw, Galium aparine)
Method in brief: as §1

[5] = tested on: ragweed (common ragweed, Ambrosia elatior)
Method in brief: as §1

[6] = tested on: velvetleaf (Abutilon theophrasti)
Method in brief: as §1

[7] = tested on: crabgrass, large (large crabgrass, Digitaria sanguinalis)
Method in brief: as §1

[8] = tested on: blackgrass (Alopecurus myosuroides)
Method in brief: as §1

[9] = tested on: waterhemp (common waterhemp, Amaranthus rudis)
Method in brief: as §1

[10] = tested on: lambsquarters (Chenopodium album)
Method in brief: as §1

[11] = tested on: foxtail, giant (giant foxtail, Setaria faberii)
Method in brief: as §1

[12] = tested on: ryegrass, Italian (Italian ryegrass, Lolium multiflorum)
Method in brief: as §1

[13] = tested on: wheat (winter wheat, Triticum aestivum)
Method in brief: as §1

[14] = tested on: pigweed (Amaranthus retroflexus)
Method in brief: as §1

corn (Zea mays) = tested on: corn (Zea mays)
Method in brief: as §1

[15] = Postemergence, 31 g ai/ha, 0 to 100 scale (0 no effect, 100 complete control)
[16] = Postemergence, 125 g ai/ha, scale 0 to 100, 0 is no effect, 100 is complete control
[17] = Postemergence, 250 g ai/ha, scale 0 to 100, 0 no effect, 100 complete control, 13 to 15 d
[18] = Preemergence, 31 g ai/ha, scale 0 to 100, 0 is no effect, 100 is complete control
[19] = Preemergence, 62 g ai/ha, scale 0 to 100, 0 is no effect, 100 is complete control
[20] = Preemergence, 125 g ai/ha, scale 0 to 100, 0 is no effect, 100 is complete control
[21] = Preemergence, 250 g ai/ha, scale 0 to 100, 0 no effect, 100 complete control
[22] = postemergence, 62 g ai/ha, scale 0 to 100, 0 no effect, 100 complete control

Cc1nn(C)c(=O)c(-c2ccc(F)c3ccccc23)c1O [Compound 41]
70: Ragweed plant response rating [5, 15] | Crabgrass, Large plant response rating [7, 21] | Plant response rating, Blackgrass [8, 18]
20: Plant response rating, Corn (corn (Zea mays); [17])
5: Plant response rating, Oilseed Rape [3, 16] | Plant response rating, Oilseed Rape [3, 18] | Crabgrass, Large plant response rating [7, 15] | Plant response rating, Wheat [13, 17] | Plant response rating, Wheat [13, 19] | Corn plant response rating (corn (Zea mays); [15]) | Plant response rating, Corn (corn (Zea mays); [20]) | Corn plant response rating (corn (Zea mays); [22])
30: Velvetleaf plant response rating [6, 15] | Plant response rating, Crabgrass, Large [7, 18] | Blackgrass plant response rating [8, 15] | Plant response rating, Foxtail, Giant [11, 16] | Plant response rating, Wheat [13, 16]
40: Plant response rating, Barnyardgrass [1, 16] | Plant response rating, Barnyardgrass [1, 19] | Plant response rating, Oilseed Rape [3, 20] | Corn plant response rating (corn (Zea mays); [21])
0: Oilseed Rape plant response rating [3, 15] | Plant response rating, Oilseed Rape [3, 17] | Oilseed Rape plant response rating [3, 22] | Plant response rating, Wheat [13, 18] | Wheat plant response rating [13, 22] | Plant response rating, Corn (corn (Zea mays); [18]) | Plant response rating, Corn (corn (Zea mays); [19])
65: Velvetleaf plant response rating [6, 22] | Plant response rating, Crabgrass, Large [7, 20] | Plant response rating, Foxtail, Giant [11, 17] | Wheat plant response rating [13, 21] | Pigweed plant response rating [14, 15]
25: Barnyardgrass plant response rating [1, 15] | Plant response rating, Crabgrass, Large [7, 16]
15: Foxtail, Giant plant response rating [11, 15] | Foxtail, Giant plant response rating [11, 22]
90: Plant response rating, Galium [4, 18] | Plant response rating, Velvetleaf [6, 17] | Plant response rating, Velvetleaf [6, 19] | Blackgrass plant response rating [8, 21] | Plant response rating, Waterhemp [9, 16] | Lambsquarters plant response rating [10, 15] | Plant response rating, Lambsquarters [10, 19] | Lambsquarters plant response rating [10, 21] | Plant response rating, Ryegrass, Italian [12, 16] | Plant response rating, Ryegrass, Italian [12, 17] | Ryegrass, Italian plant response rating [12, 22]
45: Plant response rating, Foxtail, Giant [11, 18]
85: Plant response rating, Barnyardgrass [1, 20] | Plant response rating, Morningglory [2, 18] | Plant response rating, Ragweed [5, 18] | Plant response rating, Ragweed [5, 19] | Ragweed plant response rating [5, 22] | Plant response rating, Velvetleaf [6, 16] | Plant response rating, Velvetleaf [6, 18] | Plant response rating, Blackgrass [8, 20] | Plant response rating, Waterhemp [9, 17] | Plant response rating, Waterhemp [9, 18] | Plant response rating, Foxtail, Giant [11, 20] | Foxtail, Giant plant response rating [11, 21]
95: Barnyardgrass plant response rating [1, 21] | Morningglory plant response rating [2, 15] | Plant response rating, Morningglory [2, 19] | Plant response rating, Morningglory [2, 20] | Morningglory plant response rating [2, 22] | Plant response rating, Ragweed [5, 16] | Plant response rating, Ragweed [5, 20] | Plant response rating, Velvetleaf [6, 20] | Plant response rating, Waterhemp [9, 19] | Plant response rating, Lambsquarters [10, 16] | Lambsquarters plant response rating [10, 22] | Plant response rating, Ryegrass, Italian [12, 18] | Plant response rating, Ryegrass, Italian [12, 19] | Plant response rating, Ryegrass, Italian [12, 20] | Ryegrass, Italian plant response rating [12, 21] | Plant response rating, Pigweed [14, 17]
80: Plant response rating, Blackgrass [8, 19] | Plant response rating, Foxtail, Giant [11, 19] | Ryegrass, Italian plant response rating [12, 15]
35: Barnyardgrass plant response rating [1, 22] | Plant response rating, Crabgrass, Large [7, 17] | Plant response rating, Crabgrass, Large [7, 19] | Blackgrass plant response rating [8, 22]
98: Plant response rating, Morningglory [2, 17] | Morningglory plant response rating [2, 21] | Plant response rating, Galium [4, 20] | Galium plant response rating [4, 21] | Velvetleaf plant response rating [6, 21] | Plant response rating, Lambsquarters [10, 17]
50: Plant response rating, Oilseed Rape [3, 19] | Plant response rating, Blackgrass [8, 16] | Plant response rating, Wheat [13, 20]
10: Plant response rating, Barnyardgrass [1, 18] | Crabgrass, Large plant response rating [7, 22] | Wheat plant response rating [13, 15] | Plant response rating, Corn (corn (Zea mays); [16])
100: Plant response rating, Morningglory [2, 16] | Oilseed Rape plant response rating [3, 21] | Galium plant response rating [4, 15] | Plant response rating, Galium [4, 16] | Plant response rating, Galium [4, 17] | Plant response rating, Galium [4, 19] | Galium plant response rating [4, 22] | Plant response rating, Ragweed [5, 17] | Ragweed plant response rating [5, 21] | Plant response rating, Waterhemp [9, 20] | Waterhemp plant response rating [9, 21] | Plant response rating, Lambsquarters [10, 20] | Plant response rating, Pigweed [14, 19] | Plant response rating, Pigweed [14, 20] | Pigweed plant response rating [14, 21]
60: Plant response rating, Barnyardgrass [1, 17] | Plant response rating, Blackgrass [8, 17]
75: Waterhemp plant response rating [9, 15] | Waterhemp plant response rating [9, 22] | Plant response rating, Lambsquarters [10, 18] | Plant response rating, Pigweed [14, 16] | Plant response rating, Pigweed [14, 18] | Pigweed plant response rating [14, 22]

— patent publication US10597388B2, “Pyridazinone herbicides” (FMC CORPORATION, priority 2014, dated 2020)
